Laboratory results reported in article PMC11347161, “Sequence diversity of apidaecin-like peptides arresting the terminating ribosome” (Nucleic Acids Research, 2024).
≈ marks a conversion by molar mass, not a printed value. Residues, ends and D or L forms follow the SMILES beside them. *: point of attachment. Orn(α-tetramethylguanidino) = CN(C)C(=N[C@@H](CCCN)C(=O)*)N(C)C

System: E. coli, BL21 cells
Assay type: cell-based
Conditions: for MIC, TSB / MIC, LB / MIC, RPMI/Serum: E. coli BL21, broth microdilution, conducted in triplicate; for MIC, TSB: 33% TSB medium; for MIC, LB: LB medium; for MIC, RPMI/Serum: RPMI/Serum medium (RPMI-1640:MHB:FBS = 100:5:20)
Protocol: The E. coli strain CA244 (lacZ125(Am), e14-, trpA49(Am), relA1, spoT1) was obtained from Escherichia coli Genetic Stock Center. The E. coli BL21(DE3) electrocompetent cells were from Sigma. The following media and components were implemented for bacteria growth: lysogeny broth (LB), minimal M9 medium, Tryptic Soy Broth (TSB), Roswell Park Memorial Institute medium 1640 (RPMI-1640), Mueller Hinton Broth (MHB), Fetal Bovine Serum (FBS). For various experiments E. coli cells were grown either in LB, in 33% TSB ([21]), in M9 medium supplemented with 1% Glycerol, 1 mM MgSO4, 0.1 mM CaCl2 and 10 μg/ml thiamine, or in RPMI/Serum (RPMI-1640:MHB:FBS = 100:5:20) ([23]).
The minimal inhibitory concentration (MIC) test was performed using the broth microdilution method, adapted from the previously described procedure ([28]). The MIC tests were conducted in triplicate either in LB, 33% TSB or RPMI/Serum media.
In order to quantitatively assess the antimicrobial activity of the synthesized peptides identified by both, the negative and positive selection strategies, we determined their minimal inhibitory concentrations (MICs) for the E. coli BL21 cells in three different media: LB, as a standard laboratory medium, 33% TSB, as a medium in which PrAMPs show increased antibacterial properties ([21]), and in the more therapeutically relevant RPMI/serum media ([23]) (Table 1). […] It appears, therefore, that the positive selection strategy is more prone to identifying biologically active peptides in comparison with the negative selection approaches. Furthermore, it became apparent that some multiple substitutions can even improve the antibacterial properties of the Api-like peptides.

| SMILES | MIC, TSB [µM] | MIC, LB [µM] | MIC, RPMI/Serum [µM] | MIC values relative to wt Api (E. coli BL21, peptides from depletion selection) |
| --- | --- | --- | --- | --- |
| CC[C@H](C)[C@H](NC(=O)[C@H](Cc1ccc(O)cc1)NC(=O)[C@@H](NC(=O)[C@@H]1CCCN1C(=O)[C@H](CCCNC(=N)N)NC(=O)[C@H](CC(N)=O)NC(=O)[C@H](CC(N)=O)NC(=O)[C@H](CCCN)N=C(N(C)C)N(C)C)C(C)C)C(=O)N1CCC[C@H]1C(=O)N[C@@H](CCCNC(=N)N)C(=O)N1CCC[C@H]1C(=O)N[C@@H](CCCNC(=N)N)C(=O)N1CCC[C@H]1C(=O)N1CCC[C@H]1C(=O)N[C@@H](Cc1c[nH]cn1)C(=O)N1CCC[C@H]1C(=O)N[C@@H](CCCNC(=N)N)C(=O)N[C@@H](CC(C)C)C(=O)O [Api 137, reference compound] ({Orn(α-tetramethylguanidino)}-NNRPVYIPRPRPPHPRL-OH; N-terminus and C-terminus assumed) | 0.25 (≈ 0.573 µg/mL) | 4 (≈ 9.17 µg/mL) | 0.0625 (≈ 0.143 µg/mL) | – |
| CC(C)C[C@H](NC(=O)[C@H](CCCNC(=N)N)NC(=O)[C@@H]1CCCN1C(=O)[C@H](Cc1c[nH]cn1)NC(=O)[C@H](Cc1ccc(O)cc1)NC(=O)[C@@H]1CCCN1C(=O)[C@H](CCCNC(=N)N)NC(=O)[C@@H]1CCCN1C(=O)[C@@H](NC(=O)[C@H](CS)NC(=O)[C@H](Cc1c[nH]c2ccccc12)NC(=O)[C@H](CCC(N)=O)NC(=O)[C@@H](NC(=O)[C@H](CCCCN)NC(=O)[C@H](CCCNC(=N)N)NC(=O)[C@H](CC(N)=O)NC(=O)[C@H](CC(N)=O)NC(=O)[C@H](CCCN)N=C(N(C)C)N(C)C)C(C)C)C(C)C)C(=O)O [K5Q7W8C9V10Y14] ({Orn(α-tetramethylguanidino)}-NNRKVQWCVPRPYHPRL-OH; C-terminus assumed) | >64 | >64 | >64 | – |
| CC(C)C[C@H](NC(=O)[C@@H]1CCCN1C(=O)[C@H](CCC(N)=O)NC(=O)[C@@H]1CCCN1C(=O)[C@H](CC(C)C)NC(=O)[C@H](Cc1ccc(O)cc1)NC(=O)[C@@H](NC(=O)[C@@H]1CCCN1C(=O)[C@H](CCCNC(=N)N)NC(=O)[C@H](CC(N)=O)NC(=O)[C@H](CC(N)=O)NC(=O)[C@H](CCCN)N=C(N(C)C)N(C)C)C(C)C)C(=O)NCC(=O)N1CCC[C@H]1C(=O)NCC(=O)N1CCC[C@H]1C(=O)N[C@@H](CCCNC(=N)N)C(=O)N[C@@H](C)C(=O)O [L8L12G13G15A18] ({Orn(α-tetramethylguanidino)}-NNRPVYLPQPLGPGPRA-OH; C-terminus assumed) | >64 | >64 | >64 | – |
| CSCC[C@H](NC(=O)[C@H](CCCNC(=N)N)NC(=O)[C@@H]1CCCN1C(=O)[C@H](Cc1ccc(O)cc1)NC(=O)[C@@H]1CCCN1C(=O)[C@H](Cc1ccccc1)NC(=O)[C@H](Cc1ccc(O)cc1)NC(=O)[C@@H](NC(=O)[C@@H]1CCCN1C(=O)[C@H](CCCNC(=N)N)NC(=O)[C@H](C)NC(=O)[C@H](CC(N)=O)NC(=O)[C@H](CCCN)N=C(N(C)C)N(C)C)C(C)C)C(=O)N1CCC[C@H]1C(=O)N[C@@H](Cc1c[nH]cn1)C(=O)N1CCC[C@H]1C(=O)N[C@@H](CCCNC(=N)N)C(=O)N[C@@H](CC(C)C)C(=O)O [Peptide A3F8Y10M13] ({Orn(α-tetramethylguanidino)}-NARPVYFPYPRMPHPRL-OH; C-terminus assumed) | 16 (≈ 37.2 µg/mL) | >64 | 8 (≈ 18.6 µg/mL) | – |
| CC[C@H](C)[C@H](NC(=O)[C@H](Cc1ccc(O)cc1)NC(=O)[C@@H](NC(=O)[C@@H]1CCCN1C(=O)[C@H](CCCNC(=N)N)NC(=O)[C@H](CC(N)=O)NC(=O)[C@H](CC(N)=O)NC(=O)[C@H](CCCN)N=C(N(C)C)N(C)C)C(C)C)C(=O)NCC(=O)N[C@@H](CCC(=O)O)C(=O)N1CCC[C@H]1C(=O)N[C@@H](CCCNC(=N)N)C(=O)N1CCC[C@H]1C(=O)N1CCC[C@H]1C(=O)N[C@@H](CC(N)=O)C(=O)N1CCC[C@H]1C(=O)N[C@@H](CCCNC(=N)N)C(=O)N[C@@H](CC(C)C)C(=O)O [Peptide G9E10N15] ({Orn(α-tetramethylguanidino)}-NNRPVYIGEPRPPNPRL-OH; C-terminus assumed) | >64 | >64 | >64 | – |
| CC[C@H](C)[C@H](NC(=O)[C@H](Cc1ccc(O)cc1)NC(=O)[C@@H](NC(=O)[C@@H]1CCCN1C(=O)[C@H](CCCNC(=N)N)NC(=O)[C@H](CC(N)=O)NC(=O)[C@H](CCCCN)NC(=O)[C@H](CCCN)N=C(N(C)C)N(C)C)C(C)C)C(=O)N[C@@H](CC(N)=O)C(=O)N[C@@H](CCC(N)=O)C(=O)N1CCC[C@H]1C(=O)N[C@@H](CCCNC(=N)N)C(=O)N[C@@H](CCC(=O)O)C(=O)N1CCC[C@H]1C(=O)N[C@@H](Cc1c[nH]cn1)C(=O)N1CCC[C@H]1C(=O)N[C@@H](CCCNC(=N)N)C(=O)N[C@@H](CC(C)C)C(=O)O [Peptide K2N9E13] ({Orn(α-tetramethylguanidino)}-KNRPVYINQPREPHPRL-OH; C-terminus assumed) | >64 | >64 | >64 | – |
| CC(C)C[C@H](NC(=O)[C@H](CCCNC(=N)N)NC(=O)[C@@H]1CCCN1C(=O)[C@H](Cc1c[nH]cn1)NC(=O)[C@@H]1CCCN1C(=O)[C@H](CO)NC(=O)[C@H](CCCNC(=N)N)NC(=O)[C@@H]1CCCN1C(=O)[C@@H](NC(=O)[C@H](CC(N)=O)NC(=O)[C@H](Cc1ccc(O)cc1)NC(=O)[C@H](Cc1ccc(O)cc1)NC(=O)[C@@H](NC(=O)[C@@H]1CCCN1C(=O)[C@H](CCCNC(=N)N)NC(=O)[C@H](CCCCN)NC(=O)[C@H](CC(N)=O)NC(=O)[C@H](CCCN)N=C(N(C)C)N(C)C)C(C)C)[C@@H](C)O)C(=O)O [Peptide K3Y8N9T10S13] ({Orn(α-tetramethylguanidino)}-NKRPVYYNTPRSPHPRL-OH; C-terminus assumed) | >64 | >64 | >64 | – |
| CC[C@H](C)[C@H](NC(=O)[C@H](Cc1ccc(O)cc1)NC(=O)[C@H](CCCCN)NC(=O)[C@@H]1CCCN1C(=O)[C@H](CCCNC(=N)N)NC(=O)[C@H](CC(N)=O)NC(=O)[C@H](CC(N)=O)NC(=O)[C@H](CCCN)N=C(N(C)C)N(C)C)C(=O)N1CCC[C@H]1C(=O)N[C@@H](CCSC)C(=O)N1CCC[C@H]1C(=O)N[C@@H](CCCNC(=N)N)C(=O)N1CCC[C@H]1C(=O)N1CCC[C@H]1C(=O)N[C@@H](Cc1c[nH]cn1)C(=O)N1CCC[C@H]1C(=O)N[C@@H](CCCNC(=N)N)C(=O)N[C@@H](CC(C)C)C(=O)O [Peptide K6M10] ({Orn(α-tetramethylguanidino)}-NNRPKYIPMPRPPHPRL-OH; C-terminus assumed) | 0.5 (≈ 1.15 µg/mL) | 8 (≈ 18.4 µg/mL) | 1 (≈ 2.3 µg/mL) | comparable to those of wt Api |
| CC(C)C[C@H](NC(=O)[C@H](CCCNC(=N)N)NC(=O)[C@H](CC(C)C)NC(=O)[C@H](Cc1c[nH]cn1)NC(=O)[C@@H]1CCCN1C(=O)CNC(=O)[C@H](CC(C)C)NC(=O)[C@@H]1CCCN1C(=O)[C@H](CCC(N)=O)NC(=O)[C@@H]1CCCN1C(=O)[C@H](CC(C)C)NC(=O)[C@H](Cc1ccc(O)cc1)NC(=O)[C@@H](NC(=O)[C@@H]1CCCN1C(=O)[C@H](CCCNC(=N)N)NC(=O)[C@H](CC(N)=O)NC(=O)[C@H](CC(N)=O)NC(=O)[C@H](CCCN)N=C(N(C)C)N(C)C)C(C)C)C(=O)O [Peptide L8L12G13L16] ({Orn(α-tetramethylguanidino)}-NNRPVYLPQPLGPHLRL-OH; C-terminus assumed) | >64 | >64 | >64 | – |
| CC[C@H](C)[C@H](NC(=O)[C@H](Cc1ccc(O)cc1)NC(=O)[C@H](CCSC)NC(=O)[C@@H]1CCCN1C(=O)[C@H](CCCNC(=N)N)NC(=O)[C@H](CC(N)=O)NC(=O)[C@H](CC(N)=O)NC(=O)[C@H](CCCN)N=C(N(C)C)N(C)C)C(=O)N[C@@H](C)C(=O)N[C@@H](CCC(N)=O)C(=O)N1CCC[C@H]1C(=O)N[C@@H](CCCNC(=N)N)C(=O)N1CCC[C@H]1C(=O)N[C@@H](Cc1ccc(O)cc1)C(=O)N[C@@H](Cc1c[nH]cn1)C(=O)N1CCC[C@H]1C(=O)N[C@@H](CCCNC(=N)N)C(=O)N[C@@H](CC(C)C)C(=O)O [Peptide M6A9Y14] ({Orn(α-tetramethylguanidino)}-NNRPMYIAQPRPYHPRL-OH; C-terminus assumed) | 16 (≈ 37.4 µg/mL) | >64 | 16 (≈ 37.4 µg/mL) | – |
| CC[C@H](C)[C@H](NC(=O)CNC(=O)[C@@H](NC(=O)[C@H](CCC(=O)O)NC(=O)[C@H](CCC(N)=O)NC(=O)[C@H](CC(N)=O)NC(=O)[C@H](CC(N)=O)NC(=O)[C@H](CCCN)N=C(N(C)C)N(C)C)C(C)C)C(=O)N[C@@H](CCSC)C(=O)N[C@@H](CCC(N)=O)C(=O)N1CCC[C@H]1C(=O)N[C@@H](CCCNC(=N)N)C(=O)N1CCC[C@H]1C(=O)N1CCC[C@H]1C(=O)N[C@@H](Cc1c[nH]cn1)C(=O)N1CCC[C@H]1C(=O)N[C@@H](CCCNC(=N)N)C(=O)N[C@@H](CC(C)C)C(=O)O [Peptide Q4E5G7M9] ({Orn(α-tetramethylguanidino)}-NNQEVGIMQPRPPHPRL-OH; C-terminus assumed) | >64 | >64 | >64 | – |
